Calls of active or inactive are those of the source. Rule as the data show it, for most assays here: actives have a measured Kd and inactives only a lower limit.

Assay [1] deals with Cyclin-dependent kinase 17 (Homo sapiens, UniProt Q00537).
The target in assay [2] is Calcium/calmodulin-dependent protein kinase type II subunit gamma (Homo sapiens, UniProt Q13555).
The target of assay [3] is T1, Acyl-CoA dehydrogenase family member 11 (Homo sapiens, UniProt Q709F0).
T1 sequence (Q709F0 whole entry): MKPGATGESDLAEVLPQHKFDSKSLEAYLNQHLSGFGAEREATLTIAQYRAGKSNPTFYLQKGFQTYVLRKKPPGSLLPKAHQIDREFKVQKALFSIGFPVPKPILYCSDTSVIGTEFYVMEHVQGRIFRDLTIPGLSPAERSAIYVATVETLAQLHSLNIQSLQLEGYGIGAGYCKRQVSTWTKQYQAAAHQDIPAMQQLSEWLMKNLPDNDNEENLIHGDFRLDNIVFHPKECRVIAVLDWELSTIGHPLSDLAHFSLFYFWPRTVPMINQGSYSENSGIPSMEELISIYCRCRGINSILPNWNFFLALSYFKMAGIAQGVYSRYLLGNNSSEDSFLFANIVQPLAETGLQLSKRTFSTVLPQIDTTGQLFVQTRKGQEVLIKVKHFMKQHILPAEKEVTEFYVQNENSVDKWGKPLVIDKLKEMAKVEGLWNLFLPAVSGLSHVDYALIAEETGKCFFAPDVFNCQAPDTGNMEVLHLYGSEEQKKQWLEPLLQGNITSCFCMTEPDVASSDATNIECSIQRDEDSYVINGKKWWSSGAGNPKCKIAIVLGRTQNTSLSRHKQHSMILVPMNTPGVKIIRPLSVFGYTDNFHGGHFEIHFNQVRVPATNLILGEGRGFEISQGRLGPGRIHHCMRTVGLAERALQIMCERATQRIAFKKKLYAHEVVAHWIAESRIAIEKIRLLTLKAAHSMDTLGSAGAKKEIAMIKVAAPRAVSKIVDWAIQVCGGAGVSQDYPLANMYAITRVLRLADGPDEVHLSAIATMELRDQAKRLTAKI

Assay [4] concerns the target T2, Phosphatidylinositol 5-phosphate 4-kinase type-2 gamma (Homo sapiens, UniProt Q8TBX8).
T2 sequence (Q8TBX8 whole entry): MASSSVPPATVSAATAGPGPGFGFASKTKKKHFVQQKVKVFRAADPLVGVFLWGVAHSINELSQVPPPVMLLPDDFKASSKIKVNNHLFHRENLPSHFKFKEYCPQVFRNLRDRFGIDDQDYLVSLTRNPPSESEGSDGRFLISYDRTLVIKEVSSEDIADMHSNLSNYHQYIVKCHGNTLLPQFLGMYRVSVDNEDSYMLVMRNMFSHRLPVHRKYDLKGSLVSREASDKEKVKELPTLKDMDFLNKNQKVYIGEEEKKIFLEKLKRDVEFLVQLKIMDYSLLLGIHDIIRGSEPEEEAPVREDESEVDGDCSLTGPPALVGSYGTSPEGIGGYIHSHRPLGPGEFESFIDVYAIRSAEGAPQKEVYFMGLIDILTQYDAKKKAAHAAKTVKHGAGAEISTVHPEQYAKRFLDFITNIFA

For assay [5], the target named is T3, DNA replication licensing factor MCM4 (Homo sapiens, UniProt P33991).
T3 sequence (P33991 whole entry): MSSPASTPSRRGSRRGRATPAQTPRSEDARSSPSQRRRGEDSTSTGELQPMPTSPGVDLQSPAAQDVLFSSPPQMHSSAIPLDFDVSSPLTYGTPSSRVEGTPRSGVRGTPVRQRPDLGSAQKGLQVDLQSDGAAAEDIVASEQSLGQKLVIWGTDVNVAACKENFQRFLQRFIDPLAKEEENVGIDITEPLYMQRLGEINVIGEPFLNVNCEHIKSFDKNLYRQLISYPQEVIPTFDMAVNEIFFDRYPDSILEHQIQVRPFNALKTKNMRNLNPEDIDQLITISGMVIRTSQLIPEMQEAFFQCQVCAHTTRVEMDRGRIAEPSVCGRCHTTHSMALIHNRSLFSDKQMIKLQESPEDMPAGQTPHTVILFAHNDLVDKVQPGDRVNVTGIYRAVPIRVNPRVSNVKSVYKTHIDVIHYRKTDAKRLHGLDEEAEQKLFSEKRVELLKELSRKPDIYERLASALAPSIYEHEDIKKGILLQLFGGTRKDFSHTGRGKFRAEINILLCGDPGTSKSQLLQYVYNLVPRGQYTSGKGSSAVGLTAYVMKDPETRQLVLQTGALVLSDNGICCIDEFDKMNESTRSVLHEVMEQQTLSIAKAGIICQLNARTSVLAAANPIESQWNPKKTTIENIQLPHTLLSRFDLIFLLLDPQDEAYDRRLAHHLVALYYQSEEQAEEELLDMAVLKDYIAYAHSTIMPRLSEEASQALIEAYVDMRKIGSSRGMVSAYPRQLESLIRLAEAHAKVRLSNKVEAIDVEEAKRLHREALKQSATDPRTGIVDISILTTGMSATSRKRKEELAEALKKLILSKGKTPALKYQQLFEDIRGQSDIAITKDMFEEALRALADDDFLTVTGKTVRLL

Assay [6] deals with T4, Pyridoxal kinase (Homo sapiens, UniProt O00764).
T4 sequence (O00764 whole entry): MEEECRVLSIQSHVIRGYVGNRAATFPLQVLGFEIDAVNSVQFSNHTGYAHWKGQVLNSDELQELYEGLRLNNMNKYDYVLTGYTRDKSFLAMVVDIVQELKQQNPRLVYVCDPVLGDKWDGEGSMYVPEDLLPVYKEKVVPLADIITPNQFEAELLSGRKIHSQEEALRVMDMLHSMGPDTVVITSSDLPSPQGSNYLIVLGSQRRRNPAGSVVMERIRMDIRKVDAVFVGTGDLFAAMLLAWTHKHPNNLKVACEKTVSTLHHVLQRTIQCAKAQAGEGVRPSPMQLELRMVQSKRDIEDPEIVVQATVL

In assay [7] the target is STE20-like serine/threonine-protein kinase (Homo sapiens, UniProt Q9H2G2).
Also: in the data inactive means no Kd found up to 30 µM.

Sequence of STE20-like serine/threonine-protein kinase (Q9H2G2 whole entry): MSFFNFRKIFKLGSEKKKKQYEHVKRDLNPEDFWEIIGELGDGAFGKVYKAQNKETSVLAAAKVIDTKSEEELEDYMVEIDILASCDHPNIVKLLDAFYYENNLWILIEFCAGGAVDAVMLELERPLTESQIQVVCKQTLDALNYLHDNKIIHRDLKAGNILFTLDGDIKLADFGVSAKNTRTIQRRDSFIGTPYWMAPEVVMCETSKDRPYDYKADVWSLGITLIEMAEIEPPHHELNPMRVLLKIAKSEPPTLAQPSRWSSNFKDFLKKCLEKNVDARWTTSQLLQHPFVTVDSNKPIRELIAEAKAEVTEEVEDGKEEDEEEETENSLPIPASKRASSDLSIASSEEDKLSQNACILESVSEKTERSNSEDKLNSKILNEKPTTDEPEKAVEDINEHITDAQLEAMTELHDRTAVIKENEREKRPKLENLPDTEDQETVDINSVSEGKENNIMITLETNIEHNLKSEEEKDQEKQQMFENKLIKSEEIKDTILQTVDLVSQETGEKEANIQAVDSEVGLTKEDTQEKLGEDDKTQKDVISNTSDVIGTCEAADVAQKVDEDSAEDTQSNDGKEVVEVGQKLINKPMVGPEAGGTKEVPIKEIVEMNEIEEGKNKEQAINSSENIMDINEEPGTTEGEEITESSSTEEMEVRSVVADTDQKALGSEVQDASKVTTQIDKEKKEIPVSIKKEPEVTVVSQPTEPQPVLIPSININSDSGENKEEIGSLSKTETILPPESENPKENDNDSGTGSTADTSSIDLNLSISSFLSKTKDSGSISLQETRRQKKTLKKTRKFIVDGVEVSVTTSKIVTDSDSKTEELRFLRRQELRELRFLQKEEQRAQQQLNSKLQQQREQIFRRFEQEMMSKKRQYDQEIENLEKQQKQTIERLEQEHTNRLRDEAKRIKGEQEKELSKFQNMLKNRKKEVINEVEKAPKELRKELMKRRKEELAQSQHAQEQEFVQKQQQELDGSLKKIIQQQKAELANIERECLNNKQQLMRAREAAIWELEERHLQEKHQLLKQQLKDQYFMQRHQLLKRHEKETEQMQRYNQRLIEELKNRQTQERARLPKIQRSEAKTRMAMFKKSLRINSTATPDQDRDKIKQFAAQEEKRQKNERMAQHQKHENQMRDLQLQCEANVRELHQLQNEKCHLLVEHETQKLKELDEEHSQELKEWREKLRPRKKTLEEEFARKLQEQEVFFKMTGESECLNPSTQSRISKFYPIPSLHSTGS
Sequence of Calcium/calmodulin-dependent protein kinase type II subunit gamma (Q13555 whole entry): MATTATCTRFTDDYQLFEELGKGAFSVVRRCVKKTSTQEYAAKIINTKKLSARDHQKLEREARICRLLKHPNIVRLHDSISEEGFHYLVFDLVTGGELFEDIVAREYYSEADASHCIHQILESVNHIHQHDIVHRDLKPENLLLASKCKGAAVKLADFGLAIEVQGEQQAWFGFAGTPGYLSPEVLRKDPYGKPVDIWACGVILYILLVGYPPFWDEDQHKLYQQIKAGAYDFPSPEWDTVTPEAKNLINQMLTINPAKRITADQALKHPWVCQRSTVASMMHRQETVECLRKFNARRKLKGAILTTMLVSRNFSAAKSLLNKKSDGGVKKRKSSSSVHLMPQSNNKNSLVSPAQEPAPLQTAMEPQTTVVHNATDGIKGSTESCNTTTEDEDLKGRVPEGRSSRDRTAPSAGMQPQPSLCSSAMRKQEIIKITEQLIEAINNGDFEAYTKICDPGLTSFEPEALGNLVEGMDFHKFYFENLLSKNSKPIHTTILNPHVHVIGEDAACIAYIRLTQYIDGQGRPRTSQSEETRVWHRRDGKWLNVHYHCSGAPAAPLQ
Sequence of Cyclin-dependent kinase 17 (Q00537 whole entry): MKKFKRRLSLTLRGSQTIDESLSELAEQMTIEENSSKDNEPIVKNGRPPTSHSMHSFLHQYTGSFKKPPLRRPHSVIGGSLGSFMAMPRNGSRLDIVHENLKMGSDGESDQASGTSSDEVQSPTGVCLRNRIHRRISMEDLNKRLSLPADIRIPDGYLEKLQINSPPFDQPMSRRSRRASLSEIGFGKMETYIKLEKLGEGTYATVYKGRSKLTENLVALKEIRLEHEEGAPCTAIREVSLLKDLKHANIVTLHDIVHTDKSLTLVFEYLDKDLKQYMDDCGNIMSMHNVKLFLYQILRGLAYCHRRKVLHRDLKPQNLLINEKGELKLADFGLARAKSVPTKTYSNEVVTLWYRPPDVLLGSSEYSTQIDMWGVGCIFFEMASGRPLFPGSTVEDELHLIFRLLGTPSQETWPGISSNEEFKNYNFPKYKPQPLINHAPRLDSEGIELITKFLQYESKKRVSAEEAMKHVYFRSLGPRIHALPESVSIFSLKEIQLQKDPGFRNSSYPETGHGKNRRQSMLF

Usually Kd stands for the equilibrium constant for the complex coming apart. Take `Cc1cc(Nc2ncnc3ccc(NC4=NC(C)(C)CO4)cc23)ccc1Oc1ccn2ncnc2c1` [TUCATINIB]: the Kd in assay [1], in assay [2], in assay [3], in assay [4], in assay [5] and in assay [6] was > 30 µM (inactive) each time. In assay [7], the Kd is > 30 µM (inactive).

As for `CC(C)c1cc(CNc2nc(Nc3cc(C4CC4)[nH]n3)cc(N3CCN(C)CC3)n2)on1` [XL-228], the dissociation constant (Kd) is 0.005 µM in assay [1]; > 30 µM (inactive) in assay [2]; > 30 µM (inactive) in assay [3]; > 30 µM (inactive) in assay [4]; > 30 µM (inactive) in assay [5]; > 30 µM (inactive) in assay [6]. In addition, the Kd in assay [7] was 0.138 µM (active).

`C[C@@H](N)c1ccc(C(=O)Nc2ccnc3[nH]ccc23)cc1` [Y-39983]: the Kd in assay [1], in assay [2], in assay [3], in assay [4], in assay [5] and in assay [6] was > 30 µM (inactive) in each case. Further, the Kd in assay [7] was > 30 µM (inactive).

For the molecule `CN1C/C=C/CCOc2cccc(c2)-c2ccnc(n2)Nc2cccc(c2)C1` [ZOTIRACICLIB], the Kd in assay [1], in assay [2], in assay [3], in assay [4], in assay [5] and in assay [6] was > 30 µM (inactive) throughout. Besides, in assay [7], the Kd is 6.37 µM (active).

(Values after ChEMBL document CHEMBL3991601, “The target landscape of clinical kinase drugs” (Science, 2017).)
